Patent US20240368096A1 (Enanta Pharmaceuticals, Inc., priority 2022, published 2024)

Test system: HBV
Assay: HBV infection in HepG2-NTCP cells (HBeAg AlphaLISA in supernatants)
Format: cell-based
Conditions: Hepatitis B virus, 192 h; HBV infection of HepG2-NTCP cells; HBeAg in supernatants at day 8 post infection; read-out: Cellular EC50
Outline: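 Readout was day-8 supernatant HBeAg by AlphaLISA, with EC50 set against DMSO controls and binned A<0.1 μM, B 0.1-1 μM, C>1 μM. Compounds were added 2 h before HBV (2000 GE/cell, 4% PEG, 0.5% DMSO) to HepG2-NTCP A3 cells; from day 1 medium held 2.5% DMSO.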

Row | EC50 | Structure (SMILES)
1 | < 100 nM | CN1[C@H](C2CCCCC2)CN(c2ccccc2)c2cc(OCc3ncco3)c(-c3ccc(F)c(C(=O)O)c3)cc2S1(=O)=O [Example 344]
2 | 100 to 1000 nM | CN1[C@H](C2CCCCC2)CN(c2ccccc2)c2cc(OCCc3ccsc3)c(-c3ccc(F)c(C(=O)O)c3)cc2S1(=O)=O [Example 346]
3 | < 100 nM | CN1[C@H](C2CCCCC2)CN(c2ccccc2)c2cc(OCCCc3cscn3)c(-c3ccc(F)c(C(=O)O)c3)cc2S1(=O)=O [Example 347]
4 | < 100 nM | CCCCCOc1cc2c(cc1-c1ccc(F)c(C(=O)O)c1)S(=O)(=O)N(C)[C@H](C1CCCCC1)CN2c1ccccc1 [Example 351]
5 | < 100 nM | CCCCCCOc1cc2c(cc1-c1ccc(F)c(C(=O)O)c1)S(=O)(=O)N(C)[C@H](C1CCCCC1)CN2c1ccccc1 [Example 352]
6 | < 100 nM | CCCCC[C@H](C)Oc1cc2c(cc1-c1ccc(F)c(C(=O)O)c1)S(=O)(=O)N(C)[C@H](C1CCCCC1)CN2c1ccccc1 [Example 356]
7 | < 100 nM | CC(C)Oc1cc2c(cc1-c1ccc(F)c(C(=O)O)c1)S(=O)(=O)N(C)[C@H](C1CCCCC1)CN2c1ccccc1 [Example 357]
8 | < 100 nM | CC(C)CCCCCOc1cc2c(cc1-c1ccc(F)c(C(=O)O)c1)S(=O)(=O)N(C)[C@H](C1CCCCC1)CN2c1ccccc1 [Example 362]
9 | < 100 nM | CN1[C@H](C2CCCCC2)CN(c2ccccc2)c2cc(OCC3CCC3)c(-c3ccc(F)c(C(=O)O)c3)cc2S1(=O)=O [Example 364]
10 | < 100 nM | CN1[C@H](C2CCCCC2)CN(c2ccccc2)c2cc(OCCCCO)c(-c3ccc(F)c(C(=O)O)c3)cc2S1(=O)=O [Example 365]
11 | < 100 nM | CN1[C@H](C2CCCCC2)CN(c2ccccc2)c2cc(OCCCC3CCN(C(=O)OC(C)(C)C)CC3)c(-c3ccc(F)c(C(=O)O)c3)cc2S1(=O)=O [Example 368]
12 | < 100 nM | CN1[C@H](C2CCCCC2)CN(c2ccccc2)c2cc(OC3CCCC3)c(-c3ccc(F)c(C(=O)O)c3)cc2S1(=O)=O [Example 373]
13 | < 100 nM | CN1[C@H](C2CCCCC2)CN(c2ccccc2)c2cc(OC3CCCCC3)c(-c3ccc(F)c(C(=O)O)c3)cc2S1(=O)=O [Example 374]
14 | < 100 nM | CN1[C@H](C2CCCCC2)CN(c2ccccc2)c2cc(OC3CC4(CCC4)C3)c(-c3ccc(F)c(C(=O)O)c3)cc2S1(=O)=O [Example 377]
15 | < 100 nM | CN1[C@H](C2CCCCC2)CN(c2ccccc2)c2cc(O[C@H]3C[C@H](F)C3)c(-c3ccc(F)c(C(=O)O)c3)cc2S1(=O)=O [Example 381]
16 | 100 to 1000 nM | CN1[C@H](C2CCCCC2)CN(c2ccccc2)c2cc(OC3CC4(CCOCC4)C3)c(-c3ccc(F)c(C(=O)O)c3)cc2S1(=O)=O [Example 383]
17 | 100 to 1000 nM | CN1[C@H](C2CCCCC2)CN(c2ccccc2)c2cc(OCc3cn(C)cn3)c(-c3ccc(F)c(C(=O)O)c3)cc2S1(=O)=O [Example 389, (R)-5-(3-cyclohexyl-2-methyl-7-((1-methyl-1H-imidazol-4-yl)methoxy)-1,1-dioxido-5-phenyl-2,3,4,5-tetrahydrobenzo[f][1,2,5]thiadiazepin-8-yl)-2-fluorobenzoic acid]
18 | > 1000 nM | CN1[C@H](C2CCCCC2)CN(c2ccccc2)c2cc(OCc3cncn3C)c(-c3ccc(F)c(C(=O)O)c3)cc2S1(=O)=O [Example 390]

More lines, now with the values behind:

Row | Structure (SMILES) | EC50
19 | CN1[C@H](C2CCCCC2)CN(c2ccccc2)c2cc(OCc3cnco3)c(-c3ccc(F)c(C(=O)O)c3)cc2S1(=O)=O [Example 343] | 100 to 1000 nM
20 | CN1[C@H](C2CCCCC2)CN(c2ccccc2)c2cc(OCCc3ccco3)c(-c3ccc(F)c(C(=O)O)c3)cc2S1(=O)=O [Example 345] | < 100 nM
21 | CCOc1cc2c(cc1-c1ccc(F)c(C(=O)O)c1)S(=O)(=O)N(C)[C@H](C1CCCCC1)CN2c1ccccc1 [Example 349] | < 100 nM
22 | CCCCOc1cc2c(cc1-c1ccc(F)c(C(=O)O)c1)S(=O)(=O)N(C)[C@H](C1CCCCC1)CN2c1ccccc1 [Example 350] | < 100 nM
23 | CCCCCCCCCCOc1cc2c(cc1-c1ccc(F)c(C(=O)O)c1)S(=O)(=O)N(C)[C@H](C1CCCCC1)CN2c1ccccc1 [Example 354] | 100 to 1000 nM
24 | CCCCC[C@@H](C)Oc1cc2c(cc1-c1ccc(F)c(C(=O)O)c1)S(=O)(=O)N(C)[C@H](C1CCCCC1)CN2c1ccccc1 [Example 355] | < 100 nM
25 | CC(C)COc1cc2c(cc1-c1ccc(F)c(C(=O)O)c1)S(=O)(=O)N(C)[C@H](C1CCCCC1)CN2c1ccccc1 [Example 358] | < 100 nM
26 | CC(C)CCOc1cc2c(cc1-c1ccc(F)c(C(=O)O)c1)S(=O)(=O)N(C)[C@H](C1CCCCC1)CN2c1ccccc1 [Example 359] | < 100 nM
27 | CC(C)CCCOc1cc2c(cc1-c1ccc(F)c(C(=O)O)c1)S(=O)(=O)N(C)[C@H](C1CCCCC1)CN2c1ccccc1 [Example 360] | < 100 nM
28 | CC(C)CCCCOc1cc2c(cc1-c1ccc(F)c(C(=O)O)c1)S(=O)(=O)N(C)[C@H](C1CCCCC1)CN2c1ccccc1 [Example 361] | < 100 nM
29 | CN1[C@H](C2CCCCC2)CN(c2ccccc2)c2cc(OCC3CC(F)(F)C3)c(-c3ccc(F)c(C(=O)O)c3)cc2S1(=O)=O [Example 363] | < 100 nM
30 | CN1[C@H](C2CCCCC2)CN(c2ccccc2)c2cc(OCC3CCN(C(=O)OC(C)(C)C)CC3)c(-c3ccc(F)c(C(=O)O)c3)cc2S1(=O)=O [Example 366] | < 100 nM
31 | CN1[C@H](C2CCCCC2)CN(c2ccccc2)c2cc(OCCC3CCN(C(=O)OC(C)(C)C)CC3)c(-c3ccc(F)c(C(=O)O)c3)cc2S1(=O)=O [Example 367] | < 100 nM
32 | CN1[C@H](C2CCCCC2)CN(c2ccccc2)c2cc(OC[C@@H]3CCCN(C(=O)OC(C)(C)C)C3)c(-c3ccc(F)c(C(=O)O)c3)cc2S1(=O)=O [Example 369] | 100 to 1000 nM
33 | CN1[C@H](C2CCCCC2)CN(c2ccccc2)c2cc(OCC34CC(CO3)C4)c(-c3ccc(F)c(C(=O)O)c3)cc2S1(=O)=O [Example 371] | < 100 nM
34 | CN1[C@H](C2CCCCC2)CN(c2ccccc2)c2cc(OC3CC(C)(C)C3)c(-c3ccc(F)c(C(=O)O)c3)cc2S1(=O)=O [Example 375] | < 100 nM
35 | CO[C@H]1C[C@H](Oc2cc3c(cc2-c2ccc(F)c(C(=O)O)c2)S(=O)(=O)N(C)[C@H](C2CCCCC2)CN3c2ccccc2)C1 [Example 378] | 100 to 1000 nM
36 | CO[C@H]1C[C@@H](Oc2cc3c(cc2-c2ccc(F)c(C(=O)O)c2)S(=O)(=O)N(C)[C@H](C2CCCCC2)CN3c2ccccc2)C1 [Example 379] | 100 to 1000 nM
37 | CN1[C@H](C2CCCCC2)CN(c2ccccc2)c2cc(O[C@H]3C[C@@H](F)C3)c(-c3ccc(F)c(C(=O)O)c3)cc2S1(=O)=O [Example 380] | < 100 nM
38 | CN1[C@H](C2CCCCC2)CN(c2ccccc2)c2cc(O[C@H]3C[C@@H](C#N)C3)c(-c3ccc(F)c(C(=O)O)c3)cc2S1(=O)=O [Example 382] | < 100 nM
39 | CN1[C@H](C2CCCCC2)CN(c2ccccc2)c2cc(O[C@H]3C[C@H](C#N)C3)c(-c3ccc(F)c(C(=O)O)c3)cc2S1(=O)=O [Example 384] | 100 to 1000 nM
40 | CN1[C@H](C2CCCCC2)CN(c2ccccc2)c2cc(OC3CC4(CC4)C3)c(-c3ccc(F)c(C(=O)O)c3)cc2S1(=O)=O [Example 385] | < 100 nM
41 | CN1[C@H](C2CCCCC2)CN(c2ccccc2)c2cc(OC3CCC(C)(C)CC3)c(-c3ccc(F)c(C(=O)O)c3)cc2S1(=O)=O [Example 386] | 100 to 1000 nM
42 | CN1[C@H](C2CCCCC2)CN(c2ccccc2)c2cc(OCCc3cn(C)cn3)c(-c3ccc(F)c(C(=O)O)c3)cc2S1(=O)=O [Example 392] | > 1000 nM
